Laboratory results as given in patent publication US20130005747A1, “METHOD FOR SELECTING A CANCER THERAPY” (Cyclacel Limited, priority 2010, published 2013).

Legend:
Assay in all cases: Fractional growth, 72 h seliciclib
Type in all cases: cell-based, human
143B = 143B (Bone), 15 μM seliciclib
Text: (§1) A total of 270 human cancer cell lines from diverse cancer histopathologic types were investigated.

5637 = 5637 (Bladder), 15 μM seliciclib
Text: as §1

BHT-101 = BHT-101 (Thyroid), 15 μM seliciclib
Text: as §1

C-4 II = C-4 II (Cervix), 15 μM seliciclib
Text: as §1

CAL-33 = CAL-33 (Head & Neck), 15 μM seliciclib
Text: as §1

COLO-680N = COLO-680N (Esophagus), 15 μM seliciclib
Text: as §1

Ca9-22 = Ca9-22 (Head & Neck), 15 μM seliciclib
Text: as §1

EPLC-272H = EPLC-272H (Lung: NSCLC), 15 μM seliciclib
Text: as §1

H4 = H4 (Brain), 15 μM seliciclib
Text: as §1

HCC38 = HCC38 (Breast), 15 μM seliciclib
Text: as §1

HOS = HOS (Bone), 15 μM seliciclib
Text: as §1

HSC-4 = HSC-4 (Head & Neck), 15 μM seliciclib
Text: as §1

JHU-013 = JHU-013 (Head & Neck), 15 μM seliciclib
Text: as §1

KATO III = KATO III (Stomach), 15 μM seliciclib
Text: as §1

KP-3 = KP-3 (Pancreas), 15 μM seliciclib
Text: as §1

KYSE-410 = KYSE-410 (Esophagus), 15 μM seliciclib
Text: as §1

KYSE-510 = KYSE-510 (Esophagus), 15 μM seliciclib
Text: as §1

LU99A = LU99A (Lung: NSCLC), 15 μM seliciclib
Text: as §1

LU99C = LU99C (Lung: NSCLC), 15 μM seliciclib
Text: as §1

LUDLU-1 = LUDLU-1 (Lung: NSCLC), 15 μM seliciclib
Text: as §1

M-14 = M-14 (Skin), 15 μM seliciclib
Text: as §1

NCI-H1299 = NCI-H1299 (Lung: NSCLC), 15 μM seliciclib
Text: as §1

NCI-H1781 = NCI-H1781 (Lung: NSCLC), 15 μM seliciclib
Text: as §1

PA-TU-8988S = PA-TU-8988S (Pancreas), 15 μM seliciclib
Text: as §1

PANC-1 = PANC-1 (Pancreas), 15 μM seliciclib
Text: as §1

PCI-6B = PCI-6B (Head & Neck), 15 μM seliciclib
Text: as §1

PFSK-1 = PFSK-1 (Brain), 15 μM seliciclib
Text: as §1

Panc 04.03 = Panc 04.03 (Pancreas), 15 μM seliciclib
Text: as §1

RERF-LC-Sq1 = RERF-LC-Sq1 (Lung: NSCLC), 15 μM seliciclib
Text: as §1

SAS = SAS (Head & Neck), 15 μM seliciclib
Text: as §1

SK-MEL-37 = SK-MEL-37 (Skin), 15 μM seliciclib
Text: as §1

SN-12C = SN-12C (Kidney), 15 μM seliciclib
Text: as §1

SNU-398 = SNU-398 (Liver), 15 μM seliciclib
Text: as §1

SW 780 = SW 780 (Bladder), 15 μM seliciclib
Text: as §1

T.T = T.T (Esophagus), 15 μM seliciclib
Text: as §1

VM-CUB1 = VM-CUB1 (Bladder), 15 μM seliciclib
Text: as §1

VMRC-RCZ = VMRC-RCZ (Kidney), 15 μM seliciclib
Text: as §1

CC[C@H](CO)Nc1nc(NCc2ccccc2)c2ncn(C(C)C)c2n1 [seliciclib, roscovitine]
Fractional Growth (143B): 0.6124 | Fractional Growth 5637: 0.6151 | Fractional Growth (BHT-101): 0.4486 | Fractional Growth (C-4 II): 0.7489 | Fractional Growth (CAL-33): 0.6834 | Fractional Growth (COLO-680N): 0.6838 | Fractional Growth (Ca9-22): 0.4623 | Fractional Growth (EPLC-272H): 0.6305 | Fractional Growth (H4): 0.9708 | Fractional Growth (HCC38): 0.8297 | Fractional Growth (HOS): 0.617 | Fractional Growth (HSC-4): 0.3894 | Fractional Growth (JHU-013): 0.2699 | Fractional Growth (KATO III): 0.4299 | Fractional Growth (KP-3): 0.3396 | Fractional Growth (KYSE-410): 0.4693 | Fractional Growth (KYSE-510): 0.4141 | Fractional Growth (LU99A): 0.0948 | Fractional Growth (LU99C): 0.3864 | Fractional Growth (LUDLU-1): 0.7029 | Fractional Growth (M-14): 0.3765 | Fractional Growth (NCI-H1299): 0.3352 | Fractional Growth (NCI-H1781): 0.6273 | Fractional Growth (PA-TU-8988S): 0.5791 | Fractional Growth (PANC-1): 0.5761 | Fractional Growth (PCI-6B): 0.5328 | Fractional Growth (PFSK-1): 0.249 | Fractional Growth (Panc 04.03): 0.4899 | Fractional Growth (RERF-LC-Sq1): 0.6428 | Fractional Growth (SAS): 0.3207 | Fractional Growth (SK-MEL-37): 0.5209 | Fractional Growth (SN-12C): 0.6383 | Fractional Growth (SNU-398): 0.0473 | Fractional Growth (SW 780): 0.3743 | Fractional Growth (T.T): 0.1271 | Fractional Growth (VM-CUB1): 0.3307 | Fractional Growth (VMRC-RCZ): 0.5994
